Source: patent US7227023B2, “Quinoline 3-amino chroman derivatives” (Wyeth, priority 2003, dated 2007)
pEC50, pKi: −log10 of the molar value. Structures can show the parent of a compound that is named as a salt.

What was measured:
[1] = molecular target: T1, cloned human 5-HT1A receptors (Homo sapiens, UniProt P08908); test: 35S-GTPγS binding assay, agonist activity at 5-HT1A receptors; type: biochemical; conditions: membranes containing cloned human 5-HT1A receptors; for pEC50: read-out: 5-HT1A Function EC50; for Emax / 5-HT1A Function Emax (maximum stimulatory effect): value in parentheses; for Emax: read-out: 5-HT1A Function Emax (maximum stimulatory effect); for 5-HT1A Function Emax (maximum stimulatory effect): in % (unit assumed)
T1 construct: expressed in transfected cells
T1 sequence (P08908 1-422): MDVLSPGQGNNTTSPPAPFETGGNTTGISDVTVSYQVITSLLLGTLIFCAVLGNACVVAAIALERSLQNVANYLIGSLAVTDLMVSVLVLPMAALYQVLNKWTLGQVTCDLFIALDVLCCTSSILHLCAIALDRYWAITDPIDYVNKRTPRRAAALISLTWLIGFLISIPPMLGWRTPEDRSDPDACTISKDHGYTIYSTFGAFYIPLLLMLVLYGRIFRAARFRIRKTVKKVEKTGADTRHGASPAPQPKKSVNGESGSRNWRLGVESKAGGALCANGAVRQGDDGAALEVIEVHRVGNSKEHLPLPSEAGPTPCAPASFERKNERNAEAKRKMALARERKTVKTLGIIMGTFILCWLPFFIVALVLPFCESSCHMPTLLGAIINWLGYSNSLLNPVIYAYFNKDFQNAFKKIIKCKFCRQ
Excerpt: The agonist activity at 5-HT1A receptors was established by using a ^35S-GTPγS binding assay similar to that used by Lazareno and Birdsall (Br. J. Pharmacol., 1993, 109:1120). The binding assay determines the test compound's ability to affect the binding of ^35S-GTPγS to membranes containing cloned human 5-HT1A receptors. Agonists produce an increase in binding whereas antagonists produce no increase but rather reverse the effects of the standard agonist 8-OH-DPAT. The test compound's maximum stimulatory effect is represented as the Emax, while its potency is defined by the EC50.

human 5-HT1A receptors = molecular target: T2, human 5-HT1A receptors (Homo sapiens, UniProt P08908); test: [3H] 8-OH-DPAT displacement, affinity for the 5-HT1A receptor; type: binding; conditions: CHO cells stably transfected with human 5-HT1A receptors
T2 construct: expressed in transfected cells; host or cells: CHO cells, stably transfected
T2 sequence (P08908 1-422): T1 sequence (P08908 1-422)
Excerpt: High affinity for the serotonin 5-HT1A receptor was established by testing the claimed compound's ability to displace [^3H] 8-OH-DPAT (dipropylaminotetralin) from the 5-HT1A serotonin receptor following a modification of the procedure of Hall et al. (J. Neurochem., 1985, 44: 1685) which utilizes CHO cells stably transfected with human 5-HT1A receptors.

5-HT Transporter = molecular target: T3, 5-HT Transporter (Rattus norvegicus, UniProt P31652); test: 3H-paroxetine displacement, affinity for the serotonin transporter; type: binding; conditions: male rat cortical membranes
T3 construct: ability to displace ^3H-paroxetine from male rat cortical membranes; from tissue; host or cells: male rat cortex (membranes)
T3 sequence (P31652 whole entry): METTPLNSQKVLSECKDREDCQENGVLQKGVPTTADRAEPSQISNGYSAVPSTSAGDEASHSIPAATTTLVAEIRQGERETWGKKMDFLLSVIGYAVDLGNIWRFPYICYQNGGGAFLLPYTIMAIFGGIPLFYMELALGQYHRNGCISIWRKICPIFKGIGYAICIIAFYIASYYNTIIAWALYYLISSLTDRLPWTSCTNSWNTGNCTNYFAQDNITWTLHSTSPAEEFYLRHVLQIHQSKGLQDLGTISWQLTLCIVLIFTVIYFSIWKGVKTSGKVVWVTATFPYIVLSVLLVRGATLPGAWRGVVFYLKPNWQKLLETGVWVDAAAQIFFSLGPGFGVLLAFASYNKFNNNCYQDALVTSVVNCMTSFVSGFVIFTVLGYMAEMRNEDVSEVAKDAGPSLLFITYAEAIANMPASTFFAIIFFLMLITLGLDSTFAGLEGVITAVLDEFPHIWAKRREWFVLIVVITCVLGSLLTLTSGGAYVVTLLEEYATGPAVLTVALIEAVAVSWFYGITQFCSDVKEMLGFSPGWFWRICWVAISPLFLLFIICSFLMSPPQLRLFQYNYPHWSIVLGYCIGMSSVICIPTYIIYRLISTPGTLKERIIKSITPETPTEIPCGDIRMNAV

Compound | pEC50 [1] | Emax [1] [%] | pKi (human 5-HT1A receptors) | pKi (5-HT Transporter) | melting point | 5-HT1A Function Emax (maximum stimulatory effect) [1]
Fc1ccc2[nH]cc(CCCCNC3COc4c(ccc5ncccc45)C3)c2c1 (stereo not shown) (as salt: hydrochloride) [Compound 9, N-[4-(5-fluoro-1H-indol-3-yl)butyl]-3,4-dihydro-2H-pyrano[2,3-f]quinolin-3-amine] | – | – | – | – | 173 °C (dec.) | –
Fc1ccc2[nH]cc(CCCNC3COc4ccc5ncccc5c4C3)c2c1 (stereo not shown) (as salt: hydrochloride) [Compound 1, N-[3-(5-fluoro-1H-indol-3-yl)propyl]-2,3-dihydro-1H-pyrano[3,2-f]quinolin-2-amine] | – | – | – | – | > 180 °C | –
Fc1ccc2[nH]cc(CCNC3COc4ccc5ncccc5c4C3)c2c1 (stereo not shown) (as salt: hydrochloride) [Compound 5] | – | – | – | – | 91 °C (dec.) | –
CCCN(CCCCc1c[nH]c2ccc(F)cc12)C1COc2c(ccc3ncccc23)C1 (stereo not shown) (as salt: hydrochloride) [Compound 10, N-[4-(5-fluoro-1H-indol-3-yl)butyl]-N-propyl-3,4-dihydro-2H-pyrano[2,3-f]quinolin-3-amine] | – | – | – | – | 164 °C (dec.) | –
Fc1ccc2[nH]cc(CCCCNC3COc4c(ccc5ncccc45)C3)c2c1 (stereo not shown) [Compound 9, N-[4-(5-fluoro-1H-indol-3-yl)butyl]-3,4-dihydro-2H-pyrano[2,3-f]quinolin-3-amine] | 5.23 | 100 | – | 8.93 | – | –
CCCN(CCCCc1c[nH]c2ccc(F)cc12)C1COc2c(ccc3ncccc23)C1 (stereo not shown) [Compound 10, N-[4-(5-fluoro-1H-indol-3-yl)butyl]-N-propyl-3,4-dihydro-2H-pyrano[2,3-f]quinolin-3-amine] | – | – | – | 7.92 | – | –
Fc1ccc2[nH]cc(CCCNC3COc4ccc5ncccc5c4C3)c2c1 (single isomer, unassigned; (+)) (as salt: hydrochloride) [Compound 1a, (+)-N-[3-(5-fluoro-1H-indol-3-yl)propyl]-2,3-dihydro-1H-pyrano[3,2-f]quinolin-2-amine] | – | – | – | – | 330 °C (dec.) | –
Fc1ccc2[nH]cc(CCCNC3COc4ccc5ncccc5c4C3)c2c1 (single isomer, unassigned; (-)) [Compound 1b, (−)-N-[3-(5-fluoro-1H-indol-3-yl)propyl]-2,3-dihydro-1H-pyrano[3,2-f]quinolin-2-amine] | 6.92 | – | 6.50 | – | – | 85.87
Fc1ccc2[nH]cc(CCNC3COc4ccc5ncccc5c4C3)c2c1 (stereo not shown) [Compound 5] | 5.30 | 30 | – | 7.62 | – | –
Fc1ccc2[nH]cc(CCCNC3COc4ccc5ncccc5c4C3)c2c1 (stereo not shown) [Compound 1, N-[3-(5-fluoro-1H-indol-3-yl)propyl]-2,3-dihydro-1H-pyrano[3,2-f]quinolin-2-amine] | 6.74 | 75.8 | 7.20 | – | – | –
Fc1ccc2[nH]cc(CCCNC3COc4ccc5ncccc5c4C3)c2c1 (single isomer, unassigned; (+)) [Compound 1a, (+)-N-[3-(5-fluoro-1H-indol-3-yl)propyl]-2,3-dihydro-1H-pyrano[3,2-f]quinolin-2-amine] | 6.14 | 100 | 7.62 | – | – | –
Fc1ccc2[nH]cc(CCCNC3COc4c(ccc5ncccc45)C3)c2c1 (stereo not shown) (as salt: hydrochloride) [Compound 7, N-[3-(5-fluoro-1H-indol-3-yl)propyl]-3,4-dihydro-2H-pyrano[2,3-f]quinolin-3-amine] | – | – | – | – | 300 °C (dec.) | –
Fc1ccc2[nH]cc(CCCNC3COc4c(ccc5ncccc45)C3)c2c1 (single isomer, unassigned; (-)) [Compound 7b, (−)-N-[3-(5-fluoro-1H-indol-3-yl)propyl]-3,4-dihydro-2H-pyrano[2,3-f]quinolin-3-amine] | 6.77 | – | 7.79 | 8.38 | – | 100
Fc1ccc2[nH]cc(CCCNC3COc4c(ccc5ncccc45)C3)c2c1 (single isomer, unassigned; (+)) [Compound 7a, (+)-N-[3-(5-fluoro-1H-indol-3-yl)propyl]-3,4,-dihydro-2H-pyrano[2,3-f]quinolin-3-amine] | 6.49 | – | – | 8.55 | – | 74.80
Fc1ccc2[nH]cc(CCCNC3COc4c(ccc5ncccc45)C3)c2c1 (single isomer, unassigned; (-)) (as salt: hydrochloride) [Compound 7b, (−)-N-[3-(5-fluoro-1H-indol-3-yl)propyl]-3,4-dihydro-2H-pyrano[2,3-f]quinolin-3-amine] | – | – | – | – | 250 °C (dec.) | –
Fc1ccc2[nH]cc(CCCNC3COc4c(ccc5ncccc45)C3)c2c1 (stereo not shown) [Compound 7, N-[3-(5-fluoro-1H-indol-3-yl)propyl]-3,4-dihydro-2H-pyrano[2,3-f]quinolin-3-amine] | 5.92 | 100 | 7.87 | 8.55 | – | –

Other lines, results leading:

pEC50 [1] | Emax [1] [%] | pKi (human 5-HT1A receptors) | pKi (5-HT Transporter) | melting point | 5-HT1A Function Emax (maximum stimulatory effect) [1] | Compound
6.72 | 41.3 | 6.32 | 7.40 | – | – | CCCN(CCc1c[nH]c2ccc(F)cc12)C1COc2ccc3ncccc3c2C1 (stereo not shown) [Compound 6, N-[2-(5-fluoro-1H-indol-3-yl)ethyl]-N-propyl-2,3-dihydro-1H-pyrano[3,2-f]quinolin-2-amine]
– | – | – | – | > 148 °C | – | CCCN(CCCc1c[nH]c2ccc(F)cc12)C1COc2ccc3ncccc3c2C1 (stereo not shown) (as salt: hydrochloride) [Compound 2, N-[3-(5-fluoro-1H-indol-3-yl)propyl]-N-propyl-2,3-dihydro-1H-pyrano[3,2-f]quinolin-2-amine]
– | – | – | – | 134 °C (dec.) | – | CCCN(CCCc1c[nH]c2ccc(F)cc12)C1COc2c(ccc3ncccc23)C1 (stereo not shown) (as salt: hydrochloride) [Compound 8, N-[3-(5-fluoro-1H-indol-3-yl)propyl]-N-propyl-3,4-dihydro-2H-pyrano[2,3-f]quinolin-3-amine]
– | – | – | – | 67 °C | – | CCCN(CCc1c[nH]c2ccc(F)cc12)C1COc2ccc3ncccc3c2C1 (stereo not shown) (as salt: hydrochloride) [Compound 6, N-[2-(5-fluoro-1H-indol-3-yl)ethyl]-N-propyl-2,3-dihydro-1H-pyrano[3,2-f]quinolin-2-amine]
6.52 | – | 6.62 | 7.72 | – | 99.92 | CCCN(CCCc1c[nH]c2ccc(F)cc12)C1COc2ccc3ncccc3c2C1 (single isomer, unassigned; (+)) [Compound 4, (+)-N-[3-(5-fluoro-1H-indol-3-yl)propyl]-N-propyl-2,3-dihydro-1H-pyrano[3,2-f]quinolin-2-amine]
– | – | – | – | 106 °C (dec.) | – | CCCN(CCCc1c[nH]c2ccc(F)cc12)C1COc2ccc3ncccc3c2C1 (single isomer, unassigned; (+)) (as salt: hydrochloride) [Compound 4, (+)-N-[3-(5-fluoro-1H-indol-3-yl)propyl]-N-propyl-2,3-dihydro-1H-pyrano[3,2-f]quinolin-2-amine]
– | – | – | – | 83.5 °C (dec.) | – | CCCN(CCCc1c[nH]c2ccc(F)cc12)C1COc2ccc3ncccc3c2C1 (single isomer, unassigned; (-)) (as salt: hydrochloride) [Compound 3, (−)-N-[3-(5-fluoro-1H-indol-3-yl)propyl]-N-propyl-2,3-dihydro-1H-pyran[3,2-f]quinolin-2-amine]
5.65 | 100 | 7.04 | 8.19 | – | – | CCCN(CCCc1c[nH]c2ccc(F)cc12)C1COc2ccc3ncccc3c2C1 (stereo not shown) [Compound 2, N-[3-(5-fluoro-1H-indol-3-yl)propyl]-N-propyl-2,3-dihydro-1H-pyrano[3,2-f]quinolin-2-amine]
5.77 | 68.3 | – | 7.82 | – | – | CCCN(CCCc1c[nH]c2ccc(F)cc12)C1COc2c(ccc3ncccc23)C1 (stereo not shown) [Compound 8, N-[3-(5-fluoro-1H-indol-3-yl)propyl]-N-propyl-3,4-dihydro-2H-pyrano[2,3-f]quinolin-3-amine]
6.20 | – | 6.68 | 8.10 | – | 54.72 | CCCN(CCCc1c[nH]c2ccc(F)cc12)C1COc2ccc3ncccc3c2C1 (single isomer, unassigned; (-)) [Compound 3, (−)-N-[3-(5-fluoro-1H-indol-3-yl)propyl]-N-propyl-2,3-dihydro-1H-pyran[3,2-f]quinolin-2-amine]
